The values below come from ChEMBL document CHEMBL1136316, “Low molecular mass peptide dendrimers that express antimicrobial properties” (2003).

For one assay, the system named is Escherichia coli. The assay can be described thus: Antimicrobial activity against Escherichia coli NCTC 8196. The assay is classed as functional.
A further assay relates to Staphylococcus aureus. The assay can be described thus: Antimicrobial activity against Staphylococcus aureus NCTC 4163. The assay is classed as functional.

Converted amounts (≈) assume the structure as drawn.

For the compound `NC(=O)[C@@H](Cc1ccccc1)NC(=O)[C@@H](CCCCNC(=O)[C@@H](CCCCNC(=O)[C@@H](N)CCCN=C(N)N)NC(=O)[C@@H](N)CCCN=C(N)N)NC(=O)[C@@H](CCCCNC(=O)C(N)CCCN=C(N)N)NC(=O)[C@H](N)CCCN=C(N)N` (stereo partly specified), the MIC in the assay with Escherichia coli was 75 µM (≈ 88 µg/mL); in the assay with Staphylococcus aureus, 130 µM (≈ 153 µg/mL).

Consider `NCCCC[C@@H](NC(=O)OCc1ccccc1)C(=O)NCCCC[C@@H](NC(=O)[C@@H](CCCCN)NC(=O)OCc1ccccc1)C(=O)N[C@H](Cc1ccc(O)cc1)C(N)=O`, for which the MIC in the assay on Escherichia coli worked out at 165 µM (≈ 137 µg/mL); in the assay with Staphylococcus aureus it was 1330 µM (≈ 1110 µg/mL).

Consider `C[C@H](N)C(=O)NCCCC[C@H](NC(=O)[C@H](C)N)C(=O)NCCCC[C@H](NC(=O)[C@H](CCCCNC(=O)[C@H](C)N)NC(=O)[C@H](C)N)C(=O)N[C@@H](Cc1ccccc1)C(N)=O` (stereo in doubt), for which the MIC with Escherichia coli and in the assay on Staphylococcus aureus was 181 µM (≈ 151 µg/mL) in each case.

On to `N=C(N)NCCCC(NC(=O)OCc1ccccc1)C(=O)NCCCC[C@@H](NC(=O)C(CCCN=C(N)N)NC(=O)OCc1ccccc1)C(=O)N[C@H](CCCCNC(=O)[C@@H](CCCCNC(=O)C(CCCN=C(N)N)NC(=O)OCc1ccccc1)NC(=O)C(CCCN=C(N)N)NC(=O)OCc1ccccc1)C(=O)N[C@H](Cc1ccccc1)C(N)=O` (stereo in doubt), for which the MIC in the assay with Escherichia coli came to 44 µM (≈ 75.2 µg/mL); against Staphylococcus aureus it was 88 µM (≈ 150 µg/mL).

On to `NCCCC[C@H](NC(=O)OCc1ccccc1)C(=O)N[C@@H](Cc1ccccc1)C(N)=O`, for which the MIC came out at 324 µM (≈ 138 µg/mL) with Escherichia coli and 151 µM (≈ 64.4 µg/mL) against Staphylococcus aureus.

In the case of `NCCCC[C@@H](NC(=O)OCc1ccccc1)C(=O)NCCCC[C@@H](NC(=O)[C@@H](CCCCN)NC(=O)OCc1ccccc1)C(=O)NCC(N)=O`, the MIC against Escherichia coli is 375 µM (≈ 273 µg/mL); in the assay on Staphylococcus aureus, 94 µM (≈ 68.3 µg/mL).

For the compound `N=C(N)NCCCC(NC(=O)OCc1ccccc1)C(=O)NCCCCC(NC(=O)C(CCCN=C(N)N)NC(=O)OCc1ccccc1)C(=O)NCCCCC(NC(=O)C(CCCCNC(=O)C(CCCN=C(N)N)NC(=O)OCc1ccccc1)NC(=O)C(CCCN=C(N)N)NC(=O)OCc1ccccc1)C(=O)N[C@H](Cc1ccccc1)C(N)=O` (stereo in doubt), the MIC amounted to 20 µM (≈ 34.2 µg/mL) with Escherichia coli and 44 µM (≈ 75.2 µg/mL) in the assay with Staphylococcus aureus.

Turning to `NC(=O)[C@@H](Cc1ccc(O)cc1)NC(=O)[C@@H](CCCCNC(=O)[C@H](N)CCCCNC(=O)OCc1ccccc1)NC(=O)[C@H](N)CCCCNC(=O)OCc1ccccc1`, the MIC against Escherichia coli and with Staphylococcus aureus was 331 µM (≈ 276 µg/mL) in each case.

As to `NCCCC[C@@H](NC(=O)OCc1ccccc1)C(=O)NCCC[C@@H](NC(=O)[C@@H](CCCCN)NC(=O)OCc1ccccc1)C(=O)N[C@H](Cc1ccccc1)C(N)=O`, the MIC against Escherichia coli and in the assay with Staphylococcus aureus was 85 µM (≈ 68.3 µg/mL) throughout.

Consider `N=C(N)NCCC[C@@H](NC(=O)OCc1ccccc1)C(=O)NCCCC[C@H](NC(=O)[C@@H](CCCN=C(N)N)NC(=O)OCc1ccccc1)C(=O)N[C@H](CCCCNC(=O)C(CCCCNC(=O)[C@H](CCCN=C(N)N)NC(=O)OCc1ccccc1)NC(=O)[C@H](CCCN=C(N)N)NC(=O)OCc1ccccc1)C(=O)N[C@H](Cc1ccccc1)C(N)=O` (stereo partly specified), for which the values for the MIC against Escherichia coli and in the assay with Staphylococcus aureus were 20 µM (≈ 34.2 µg/mL) and 44 µM (≈ 75.2 µg/mL), respectively.

Take `NCCCC[C@@H](NC(=O)OCc1ccccc1)C(=O)NCCCC[C@@H](NC(=O)[C@@H](CCCCN)NC(=O)OCc1ccccc1)C(=O)N[C@H](Cc1ccccc1)C(N)=O`: the MIC is 64 µM (≈ 52.3 µg/mL) against Escherichia coli and 39 µM (≈ 31.9 µg/mL) against Staphylococcus aureus.

For `COC(=O)[C@H](Cc1ccccc1)NC(=O)[C@@H](N)CCCCN`, the MIC stood at 590 µM (≈ 181 µg/mL) against Escherichia coli and 300 µM (≈ 92.2 µg/mL) in the assay with Staphylococcus aureus.

For `NC(=O)[C@@H](Cc1ccccc1)NC(=O)[C@@H](CCCCNC(=O)[C@H](N)CCCCNC(=O)OCc1ccccc1Cl)NC(=O)[C@H](N)CCCCNC(=O)OCc1ccccc1Cl`, the MIC with Escherichia coli was 84 µM (≈ 74.4 µg/mL); against Staphylococcus aureus, 16 µM (≈ 14.2 µg/mL).

Broadly, the MIC is the lowest concentration that inhibits growth of the organism. Low values mean a more susceptible organism, high ones a less susceptible organism.
